# Test results: patent US20260325538A1, “THERAPY” (priority 2023, published 2026)
# Experiments:
# [1] = test system: gram-negative bacteria with MBL, for example Klebsiella pneumoniae, E. coli and Pseudomonas aeruginosa; details: in combination with meropenem; cited from earlier work
# [2] = test system: Klebsiella pneumoniae K66-45 (NDM-1); experiment: Checkerboard MIC, fixed ratio of sBLI to antibiotic (Examples 3-6); assay type: cell-based; details: caMHB 29.4 μM Zn2+
# Text: The antibiotics and serine β-lactamase-inhibitors (sBLIs) were purchased from the following suppliers: Ceftazidime (CAZ): Sigma-Aldrich; Cefepime (FEP): Sigma-Aldrich; Cefpodoxime (CEFP): MedChemExpress; Sulbactam (SUL): Sigma-Aldrich Avibactam (AVI): Biosynth; Vaborbactam (VAB): ABCR; Tazobactam (TAZ): Sigma-Aldrich; Taniborbactam (TAN): Sigma-Aldrich.
# In each of Examples 3-23, the compound of Example 26 of WO 2018/033719 was employed as the zinc chelator. The following abbreviations are used in these examples: sBLI means serine-β-lactamase inhibitor; CFU means colony-forming unit, which is a group of microbes that grows from a single cell on a petri plate; DMSO means dimethyl sulfoxide; MHB means Mueller-Hinton broth; caMHB means cation-adjusted Mueller-Hinton broth; MIC means minimum inhibitory concentration—the lower the MIC, the more efficient the combination against the respective bacterial strain.
# General Protocol Used in Examples 3-10 Employing a Fixed Ratio of sBLI to Antibiotic within Each Experiment:
# Antimicrobial susceptibility testing (AST) by broth microdilution (MIC determination) was performed according to The European Committee on Antimicrobial Susceptibility Testing (EUCAST) guidelines (see Reading guide for broth microdilution Version 5.0, 2024: https://www.eucast.org).
# Sterile clear round bottom polystyrene (non-treated) 96-well microplates (Corning 3788) were used for making serial two-fold dilutions of the antibiotic and the serine sBLI in cation-adjusted Mueller Hinton II broth (caMHB; Thermo Scientific, T3462, containing 29.4 μM Zn^2+), across the columns of the microtiter plate ([…]; columns 1-12). The checkerboard plates were all made by keeping the sBLI at a fixed ratio relative to antibiotic (absolute concentrations of each, in μg/mL) to all wells containing sample in each plate. Additionally, a set of samples were included in each test plate, where the zinc chelator was added, at various fixed concentrations, of 16 μg/mL, 8 μg/mL and/or 4 μg/mL (as specified in each Example). All sample wells contained growth medium (caMHB), and inoculated bacteria at a final inoculum between 3-7×10^5 CFU/mL. […] Synergy for the triple combination (antibiotic, sBLI, and zinc chelator) was defined as when the MIC in rows containing the zinc chelator in combination with antibiotic and sBLI (triple combination), was lower than for rows containing antibiotic and sBLI (double combination; no zinc chelator).
# (§1) Two technical replicates were performed for each sample. An X in rows 1-8 in the table indicates bacterial growth, while a blank cell indicates no growth. Concentrations (μg/mL) of CAZ are given in row 0a. Concentrations (μg/mL) of AVI are given in row 0b. The zinc chelator was added in fixed concentrations, at 16 μg/mL in rows 3 and 4, at 8 μg/mL in rows 5 and 6, and 4 μg/mL in rows 7 and 8. As a control, the effect of CAZ and AVI (no zinc chelator) was tested (rows 1 and 2). All wells contained bacterial growth medium (caMHB, 29.4 μM Zn^2+) and were inoculated with the test bacterium. The grey cells indicate the CAZ MIC.
# as §1, with “FEP” for “CAZ”
# Two technical replicates were performed for each sample. An X in rows 1-8 in the table indicates bacterial growth, while a blank cell indicates no growth. Concentrations (μg/mL) of FEP are given in row 0a. Concentrations (μg/mL) of SUL are given in row 0b. […]
structure (smiles),measurement,setting,value
CN(C[C@H](O)[C@@H](O)[C@H](O)[C@H](O)CO)C(=O)c1ccc(CN(Cc2ccccn2)Cc2ccccn2)nc1 [zinc chelator],sensitivity of gram-negative bacteria with MBL to meropenem,[1],the sensitivity of these bacteria towards the antibiotic drug is reinstated
same,synergy with the zinc chelator,"[2]; zinc chelator 4 μg/mL, with CAZ and AVI (fixed ratio)",variable synergy
same,synergy with the zinc chelator,"[2]; zinc chelator 4 μg/mL, with FEP and AVI (fixed ratio)",variable synergy
same,synergy with the zinc chelator,"[2]; zinc chelator 8 μg/mL, with CAZ and AVI (fixed ratio)",Synergy
same,synergy with the zinc chelator,"[2]; zinc chelator 8 μg/mL, with FEP and AVI (fixed ratio)",Synergy
same,synergy with the zinc chelator,"[2]; zinc chelator 8 μg/mL, with FEP and SUL (fixed ratio)",Synergy
same,synergy with the zinc chelator,"[2]; zinc chelator 8 μg/mL, with FEP and TAZ (fixed ratio)",Synergy
same,synergy with the zinc chelator,"[2]; zinc chelator 16 μg/mL, with CAZ and AVI (fixed ratio)",Synergy
same,synergy with the zinc chelator,"[2]; zinc chelator 16 μg/mL, with FEP and AVI (fixed ratio)",Synergy
same,synergy with the zinc chelator,"[2]; zinc chelator 16 μg/mL, with FEP and SUL (fixed ratio)",Synergy
same,synergy with the zinc chelator,"[2]; zinc chelator 16 μg/mL, with FEP and TAZ (fixed ratio)",Synergy
